In ChEMBL document CHEMBL1201862, “PubChem BioAssay data set” (2004):
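Interpolation was linear, between the two tested concentrations surrounding the appropriate level; five concentrations were tested over 48 hours in 96-well plates. At the GI50, growth is halved.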 Active and inactive are the calls of the source. Cut-off read from the data, not from the text of the source: active = GI50 up to about 1.1 µM and inactive = higher.

Experiments:
Experiment in all cases: DTP human tumour cell line panel, 48 h
CAKI-1 = test system: CAKI-1
DMS-114 = test system: DMS-114
HCT-15 = test system: HCT-15
HL-60 = test system: HL-60
HOP-62 = test system: HOP-62
KM-20L2 = test system: KM-20L2
MCF7 = test system: MCF7
Malme-3M = test system: Malme-3M
NCI-H460 = test system: NCI-H460
OVCAR-4 = test system: OVCAR-4
SF-268 = test system: SF-268
SF-539 = test system: SF-539
SK-MEL-28 = test system: SK-MEL-28
SK-MEL-2 = test system: SK-MEL-2
SN12C = test system: SN12C
U-251 = test system: U-251
UO-31 = test system: UO-31
TK-10 = test system: TK-10
BT-549 = test system: BT-549
DU-145 = test system: DU-145

| Compound | GI50 (CAKI-1) | GI50 (DMS-114) | GI50 (HCT-15) | GI50 (HL-60) | GI50 (HOP-62) | GI50 (KM-20L2) | GI50 (MCF7) | GI50 (Malme-3M) | GI50 (NCI-H460) | GI50 (OVCAR-4) | GI50 (SF-268) | GI50 (SF-539) | GI50 (SK-MEL-28) | GI50 (SK-MEL-2) | GI50 (SN12C) | GI50 (U-251) | GI50 (UO-31) | GI50 (TK-10) | GI50 (BT-549) | GI50 (DU-145) |
| --- | --- | --- | --- | --- | --- | --- | --- | --- | --- | --- | --- | --- | --- | --- | --- | --- | --- | --- | --- | --- |
| c1ccc2cc3c(cc2c1)OP1(Oc2cccc4cccnc24)(O3)Oc2cc3ccccc3cc2O1 | 4.88 µM (inactive) | 1.79 µM (inactive) | 3.05 µM | 1.63 µM (inactive) | 21 µM (inactive) | 3.39 µM (inactive) | 1.13 µM (inactive) | 7.21 µM (inactive) | 2.52 µM (inactive) | 3.61 µM (inactive) | 4.81 µM (inactive) | 6.15 µM (inactive) | 15.8 µM (inactive) | 7.66 µM (inactive) | 14.8 µM (inactive) | 6.85 µM (inactive) | 5.01 µM (inactive) |  |  |  |
| Cc1ccc(C(=O)C(C2=Nc3nnc(N)n3C2=O)C2=Nc3nnc(N)n3C2=O)cc1 | > 100 µM (inactive) | > 100 µM (inactive) | > 100 µM | > 100 µM (inactive) |  | > 100 µM (inactive) |  | > 100 µM (inactive) | > 100 µM (inactive) | > 100 µM (inactive) | > 100 µM (inactive) | > 100 µM (inactive) | > 100 µM (inactive) | > 100 µM (inactive) | > 100 µM (inactive) |  | > 100 µM (inactive) | > 100 µM (inactive) |  |  |
| CC1SC2=NC3=C(c4ccccc4C3=O)C(c3ccc(Br)cc3)N2C1=O (stereo unspecified) | 80.9 µM (inactive) | 31.2 µM (inactive) | 52.2 µM | 22.4 µM (inactive) | > 100 µM (inactive) | > 100 µM (inactive) |  | 44.3 µM (inactive) | > 100 µM (inactive) | 41.4 µM (inactive) | 37.9 µM (inactive) |  | 43 µM (inactive) | 48.1 µM (inactive) | 37.8 µM (inactive) | 35.5 µM (inactive) | 8.47 µM (inactive) | > 100 µM (inactive) |  |  |
| CCc1cccc(C)c1NC(=O)C(=O)Cc1nc2ccccc2o1 | > 100 µM (inactive) | > 100 µM (inactive) | > 100 µM | > 100 µM (inactive) | > 100 µM (inactive) | > 100 µM (inactive) |  | > 100 µM (inactive) | > 100 µM (inactive) | > 100 µM (inactive) | > 100 µM (inactive) | > 100 µM (inactive) | > 100 µM (inactive) | > 100 µM (inactive) | > 100 µM (inactive) | > 100 µM (inactive) | > 100 µM (inactive) | > 100 µM (inactive) |  |  |
| Cc1nc2ccccc2c(=O)n1/N=C(\N=N\c1cc(Cl)ccc1Cl)c1ccccc1 | > 57.3 µM (inactive) | 30.2 µM (inactive) | 31.2 µM | 58.5 µM (inactive) | 12.4 µM (inactive) | 0.412 µM (active) | 8.04 µM (inactive) | 41 µM (inactive) | 45.8 µM (inactive) | 51.8 µM (inactive) | 58.6 µM (inactive) | 46.5 µM (inactive) | 47.2 µM (inactive) | 60.5 µM (inactive) | > 54.2 µM (inactive) | 27.1 µM (inactive) | 22.9 µM (inactive) | > 93.5 µM (inactive) | 38.6 µM (inactive) | > 100 µM (inactive) |
| O=C1O[C@@H](c2ccccc2)C[C@H]1CN1CCOCC1 | 20.4 µM (inactive) | 67 µM (inactive) | > 100 µM | 24.6 µM (inactive) | > 100 µM (inactive) | > 100 µM (inactive) |  | > 100 µM (inactive) | > 100 µM (inactive) | > 100 µM (inactive) | > 100 µM (inactive) | > 100 µM (inactive) | > 100 µM (inactive) | > 100 µM (inactive) | > 100 µM (inactive) | > 100 µM (inactive) | > 100 µM (inactive) | 84.9 µM (inactive) |  |  |
| OC12CCCCCC1(N1CCOCC1)c1ccccc12 (stereo unspecified) | > 100 µM (inactive) | > 100 µM (inactive) | > 100 µM | > 100 µM (inactive) | > 100 µM (inactive) | > 100 µM (inactive) |  | > 100 µM (inactive) | > 100 µM (inactive) | > 100 µM (inactive) | > 100 µM (inactive) | > 100 µM (inactive) | > 100 µM (inactive) | > 100 µM (inactive) | > 100 µM (inactive) | > 100 µM (inactive) | > 100 µM (inactive) | > 100 µM (inactive) |  |  |
| O=C(Cc1ccccc1)NN1C(=O)C(Cl)C1c1cc(Br)cc(Br)c1O (stereo unspecified) | 25.8 µM (inactive) | 3.97 µM (inactive) | 6.79 µM | 2.13 µM (inactive) | 14 µM (inactive) | 24.7 µM (inactive) |  | 17.7 µM (inactive) | 3.87 µM (inactive) | 13 µM (inactive) | 3.63 µM (inactive) |  | 10.3 µM (inactive) | 15.1 µM (inactive) | 21.3 µM (inactive) | 13 µM (inactive) | 4.11 µM (inactive) | 17.8 µM (inactive) |  |  |
| CC(C)C(=O)Nc1nc2c(ncn2C2OC(CO)C(O)C2O)c(=O)[nH]1 (stereo unspecified) | > 100 µM (inactive) | 67.1 µM (inactive) | > 100 µM | > 100 µM (inactive) | > 100 µM (inactive) | > 100 µM (inactive) |  | > 100 µM (inactive) | > 100 µM (inactive) | > 100 µM (inactive) | > 100 µM (inactive) | > 100 µM (inactive) | > 100 µM (inactive) | > 100 µM (inactive) | > 100 µM (inactive) | > 100 µM (inactive) | > 100 µM (inactive) | > 100 µM (inactive) |  |  |
| O=Cc1ccc2c(c1-c1c(C=O)ccc3c1OCO3)OCO2 | > 100 µM (inactive) | > 100 µM (inactive) | > 100 µM | > 100 µM (inactive) | > 100 µM (inactive) | > 100 µM (inactive) |  | > 100 µM (inactive) | > 100 µM (inactive) | > 100 µM (inactive) | > 100 µM (inactive) | > 100 µM (inactive) | > 100 µM (inactive) | > 100 µM (inactive) | > 100 µM (inactive) | > 100 µM (inactive) | > 100 µM (inactive) | > 100 µM (inactive) |  |  |
| O=[N+]([O-])c1nccn1CC(O)c1ccc(F)cc1 (stereo unspecified) | > 100 µM (inactive) | > 100 µM (inactive) | > 100 µM | > 100 µM (inactive) | > 100 µM (inactive) | > 100 µM (inactive) |  | > 100 µM (inactive) | > 100 µM (inactive) | > 100 µM (inactive) | > 100 µM (inactive) | > 100 µM (inactive) | > 100 µM (inactive) | > 100 µM (inactive) | > 100 µM (inactive) | > 100 µM (inactive) | > 100 µM (inactive) | > 100 µM (inactive) |  |  |
| O=C(Sc1sc(=S)sc1SC(=O)c1ccccc1)c1ccccc1 | > 100 µM (inactive) | > 100 µM (inactive) | > 100 µM | > 100 µM (inactive) | 25.4 µM (inactive) | 48.2 µM (inactive) |  | 78.3 µM (inactive) | > 10 µM (inactive) | > 100 µM (inactive) | 62.1 µM (inactive) | 46.2 µM (inactive) | > 100 µM (inactive) | 41.4 µM (inactive) | 93.5 µM (inactive) | 28.8 µM (inactive) |  | > 100 µM (inactive) |  |  |
| COCC(OC)C(CC=C(C#N)C#N)OC (stereo unspecified) | > 100 µM (inactive) | > 100 µM (inactive) | > 100 µM | > 100 µM (inactive) | > 100 µM (inactive) | > 100 µM (inactive) |  | > 100 µM (inactive) |  | > 100 µM (inactive) | > 100 µM (inactive) | > 100 µM (inactive) | > 100 µM (inactive) | > 100 µM (inactive) | > 100 µM (inactive) | > 100 µM (inactive) | > 100 µM (inactive) | > 100 µM (inactive) |  |  |
| CC(C)(O)[C@@H]1CCC(C)([C@H]2[C@@H](O)CC3(C)C4CC(OC5OC(CO)C(O)C(O)C5O)C5C(C)(C)[C@@H](OC6OCC(O)C(O)C6O)CC[C@@]56C[C@@]46CC[C@]23C)O1 (stereo partly specified) |  | > 100 µM (inactive) | > 100 µM | > 100 µM (inactive) |  | > 100 µM (inactive) |  | > 100 µM (inactive) | > 100 µM (inactive) | > 100 µM (inactive) | > 100 µM (inactive) | > 100 µM (inactive) | > 100 µM (inactive) | > 100 µM (inactive) | > 100 µM (inactive) | > 100 µM (inactive) | > 100 µM (inactive) | > 100 µM (inactive) |  |  |
| Cn1c(=O)nc2n(-c3cccc(Br)c3)c3ccccc3nc-2c1=O | 12.3 µM (inactive) | 2.04 µM (inactive) | 4.06 µM | 2.54 µM (inactive) | 14.8 µM (inactive) | 2.43 µM (inactive) |  | 2.71 µM (inactive) | 2.96 µM (inactive) | 3.71 µM (inactive) | 8.91 µM (inactive) | 5.42 µM (inactive) |  | 5.06 µM (inactive) | 4.78 µM (inactive) | 5.01 µM (inactive) | 12.9 µM (inactive) | 11.3 µM (inactive) |  |  |
| CCN(CC)CCNc1ccc2nnn3c4ccc(OC)cc4c(=O)c1c23 | 12.2 µM (inactive) | 8.89 µM (inactive) | 6.17 µM | 3.94 µM (inactive) | 11.1 µM (inactive) | 5.27 µM (inactive) |  | 10.4 µM (inactive) | 3.17 µM (inactive) | 6.46 µM (inactive) | 7.33 µM (inactive) | 3.04 µM (inactive) | 15.6 µM (inactive) | 14.2 µM (inactive) | 5.96 µM (inactive) | 10.4 µM (inactive) | 10 µM (inactive) | 9.25 µM (inactive) |  |  |
| O=NN(CCCl)C(=O)NCCCl [CARMUSTINE] | 71.9 µM (inactive) | 61.5 µM (inactive) | 64.6 µM | 16.7 µM (inactive) | 97.3 µM (inactive) | 94 µM (inactive) | 68.9 µM (inactive) | 81.5 µM (inactive) | 52.5 µM (inactive) | 87.9 µM (inactive) | 38.6 µM (inactive) | 44.8 µM (inactive) | 81.5 µM (inactive) | 91 µM (inactive) | 75.9 µM (inactive) | 52.1 µM (inactive) | 98.2 µM (inactive) | 93.1 µM (inactive) | 79.3 µM (inactive) | 169 µM (inactive) |
